Assay results reported in patent US10674755B2, “Organic Compounds” (GIVAUDAN SA, priority 2013, dated 2020).

What was measured:
[1] = Mango-flavoured beverage taste evaluation by a panel of experienced tasters; conditions: 0.5 ppm dosed to mango drink (mango flavour 0.05% w/w, mango juice 0.18% w/w, sugar 8% w/w, citric acid 0.1% w/w)
Description: A mango-flavoured beverage was prepared using a standard mango flavour (0.05% w/w), mango juice (0.18% w/w), sugar (8% w/w) and citric acid (0.1% w/w).

[2] = Beef bouillon taste evaluation by a panel of experienced tasters
Description: A beef bouillon was prepared using bouillon cubes obtained from a local supermarket.

[3] = 0.5 ppm dosed to beef bouillon from bouillon cubes
[4] = 40 ppb added to beef bouillon from bouillon cubes

| SMILES | taste of the mango drink versus the reference drink (panel agreement) [1] | taste of the bouillon versus the reference (panel agreement) [2, 3] | taste of the bouillon versus the reference (panel agreement) [2, 4] |
| --- | --- | --- | --- |
| CCCCCCCC/C=C\CCCCCCCC(=O)NCCCSC [Example 2, N-(3-(methylthio)propyl)oleamide] | tasted more tropical and more juicy than the reference drink |  |  |
| CCCCCCCC/C=C\CCCCCCCC(=O)NCCC(C)C [Example 4, N-isopentyloleamide] | tasted somewhat more astringent and fruity and had more body |  |  |
| CCCCCCCC/C=C\CCCCCCCC(=O)NCCCC(N)=O [Example 6, N-(4-amino-4-oxobutyl)oleamide] |  | tasted more full and had more mouthfeel than the reference |  |
| CC/C=C\C/C=C\C/C=C\CCCCCCCC(=O)NCCO [Example 8, N-(2-hydroxyethyl)linolenamide] |  |  | tasted more fatty, and slightly more salty than the reference |
| CCCCCCCCCCCCCCCCCCCC(=O)NCCO [Example 9, N-(2-hydroxyethyl)eicosanamide] |  |  | tasted more fatty, beefier and smoky, tasted more fully and had more body than the reference |
| CCCCC/C=C\C/C=C\C/C=C\C/C=C\CCCC(=O)NCCO [Example 10, N-(2-hydroxyethyl)arachidonamide] |  | had more mouthfeel and tasted more salty and more umami than the reference | tasted saltier, sweeter, more fatty and slightly more umami than the reference, and had more mouthfeel |
